From article PMC3238500 (Archives of biochemistry and biophysics, 2011)
Where two headings read alike, the source gives them in different places.

Columns and labels:
[1] = target: T1, pyruvate carboxylase (RePC) (Rhizobium etli, UniProt Q2K340); assay type: biochemical
[2] = target: T1, pyruvate carboxylase (RePC); assay type: binding
[3] = target: T1, pyruvate carboxylase (RePC); assay type: biochemical; remark: listed apart in the source
[4] = target: T1, pyruvate carboxylase (RePC); assay: Stopped-flow fluorescence kinetics of MgTNP-ATP binding to pyruvate carboxylase; settings: for kobs1 (fast phase of binding) / kobs2 (intermediate phase of binding): 0.5 μM enzyme, double exponential fit; for k-2 / K2 (equilibrium constant between two conformational states, k-2/k2) / k2: intermediate phase

SMILES: CC(=O)SCCNC(=O)CCNC(=O)[C@H](O)C(C)(C)COP(=O)(O)OP(=O)(O)OC[C@H]1O[C@@H](n2cnc3c(N)ncnc32)[C@H](O)[C@@H]1OP(=O)(O)O [acetyl CoA]
- increase in the turnover number for ATP cleavage ([1]; induced by acetyl CoA when MgATP is present up to 1 mM (data not shown)): 7 fold
- decrease in maximum fluorescence intensity ([2]; addition of 0.25 mM acetyl CoA to 5 μM MgTNP-ATP + 10 μM enzyme): approximately 32%
- n (Hill coefficient) ([3]; activation by acetyl CoA, fit to equation (i), Fig. 4a): 2.6 ± 0.2
- Ka (activation constant) ([3]; activation by acetyl CoA, fit to equation (i), Fig. 4a, 30°C, pH 7.8): 6.9 ± 0.2 µM
- kcat2 ([3]; saturating acetyl CoA, fit to equation (i), Fig. 4a): 20.2 ± 0.1 s⁻¹

SMILES: Nc1ncnc2c1ncn2[C@@H]1O[C@H](COP(=O)(O)OP(=O)([O-])OP(=O)([O-])O)[C@@H](O)[C@H]1O.[Mg+2] [MgATP]
- effect on kinetics of MgTNP-ATP binding ([4]; 1 mM MgATP in both syringes, 10 μM MgTNP-ATP): essentially identical
- Hill coefficient ([1]; activation by MgATP, absence of acetyl CoA, Fig. 6b): 3.1 ± 0.5
- increase in activity ([1]; between 2 mM and saturating MgATP, absence of acetyl CoA): approximately 16 fold
- apparent Ka (activation of ATP cleavage) ([1]; super-catalytic MgATP, absence of acetyl CoA, fit to equation (iv), Fig. 6b): 5.0 ± 0.4 mM
- further decrease in fluorescence ([2]; addition of 2.5 mM MgATP to 5 μM MgTNP-ATP + 10 μM enzyme + 0.25 mM acetyl CoA): approximately 13%
- Km ([3]; MgATP varied, absence of acetyl CoA, fit to equation (iii), Fig. 6a): 150 ± 20 µM
- Ki ([3]; read-out: Ki (substrate inhibition), MgATP varied, absence of acetyl CoA, fit to equation (iii), Fig. 6a): 8.9 ± 1.2 mM

SMILES: Nc1ncnc2c1ncn2[C@@H]1O[C@H](COP(=O)(O)OP(=O)(O)OP(=O)(O)O)[C@H]2OC3(O[C@H]21)C([N+](=O)[O-])=CC(=[N+]([O-])[O-])C=C3[N+](=O)[O-] (stereo partly drawn) [MgTNP-ATP, 2′,3′-O-(2,4,6-trinitrophenyl) adenosine 5′-triphosphate]
- half time of the slowest phase of the binding kinetics [4]: about 20 sec
- kobs1 (fast phase of binding) ([4]; 10 μM MgTNP-ATP, Fig. 8a): 234 ± 26 s⁻¹
- kobs2 (intermediate phase of binding) ([4]; 10 μM MgTNP-ATP, Fig. 8a): 11 ± 1 s⁻¹
- k (slow phase of binding) ([4]; 20 μM MgTNP-ATP, single exponential fit, Fig. 8c): 0.035 ± 0.001 s⁻¹
- kobs1 (fast phase of binding) ([4]; 35 μM MgTNP-ATP, Fig. 8b): 475 ± 90 s⁻¹
- kobs2 (intermediate phase of binding) ([4]; 35 μM MgTNP-ATP, Fig. 8b): 19 ± 2 s⁻¹
- observed first order rate constant, slow phase of binding ([4]; average value across all concentrations of MgTNP-ATP): 0.035 ± 0.008 s⁻¹
- k1 ([4]; fast phase, fit to eq (vi)): 0.20 ± 0.01 μM^-2s^-1
- k2 (intermediate phase) as percentage of k1 (fast phase) ([4]; fit to equation (ix)): 5.9%
- k-2 (intermediate phase) as percentage of k-1 (fast phase) ([4]; fit to equation (ix)): 6.6%
- k-2 ([4]; fit to eq (ix)): 10.6 ± 0.2 s⁻¹
- K2 (equilibrium constant between two conformational states, k-2/k2) ([4]; fit to eq (vii)): 0.02 ± 0.02
- k2 ([4]; fit to eq (vii)): 31 ± 1 s⁻¹
- k-2 ([4]; fit to eq (vii)): 0.6 ± 0.6 s⁻¹
- K2 (equilibrium constant between two conformational states, k-2/k2) ([4]; fit to eq (viii)): 0.47 ± 0.05
- k2 ([4]; fit to eq (viii)): 22.6 ± 0.7 s⁻¹
- k-2 ([4]; fit to eq (viii)): 10.5 ± 0.2 s⁻¹
- k-2 ([4]; fit to eq (x)): 12.6 ± 0.2 s⁻¹
- k2 ([4]; fit to eq (xi)): 0.013 ± 0.001μM^-2s^-1
- k-2 ([4]; fit to eq (xi)): 12.7 ± 0.2 s⁻¹
- k2 ([4]; fit to eq (xii)): 0.016 ± 0.001 μM^-2 s^-1
- k-2 ([4]; fit to eq (xii)): 13.5 ± 0.3 s⁻¹
- kcat2 for the activation by MgTNP-ATP ([3]; absence of acetyl CoA, fit to equation (i), Fig. 4c): 1.9 ± 0.1 s⁻¹
- nt (Hill coefficient) ([3]; activation by MgTNP-ATP in the absence of acetyl CoA, fit to equation (i), Fig. 4c): 2.3 ± 0.6
- nt (Hill coefficient) ([3]; activation by MgTNP-ATP, global fit to equation (ii), Fig. 4b): 2.5 ± 0.4
- substrate in the overall pyruvate carboxylation reaction ([3]; concentrations up to 0.25 mM): not found to be a substrate
- kcat2 for the reaction activated by MgTNP-ATP ([3]; global fit to equation (ii), Fig. 4b): 2.0 ± 0.5 s⁻¹
